The values below are quoted from earlier work in patent US20230265056A1, “CRYSTALLINE FORMS OF BENZAMIDE COMPOUND AND PROCESS FOR PREPARING THE SAME” (CRYSTAL PHARMATECH CO., LTD., priority 2020, published 2023).

The conditions of this data set: would covert to Form A under certain conditions; cited from earlier work.

Turning to `C=CC(=O)N(C)CCOc1c(N)ncnc1-c1cc(F)cc(NC(=O)c2ccc(C3CC3)cc2F)c1C` [Form B, N-(3-(6-amino-5-(2-(N-methylacrylamido)ethoxy)pyrimidin-4-yl)-5-fluoro-2-methylphenyl)-4-cyclopropyl-2-fluorobenzamide], the Thermodynamic stability entry is “less thermodynamically stable”.
